In patent US11572402B2, “Method for promoting diversification of antibody variable region” (Chiome Bioscience Inc., priority 2017, dated 2023):

Columns and labels:
[1] = test system: hVEGF-A-#33 cell line; assay: Affinity Maturation and FCM, cells in Affinity Maturation Gate; format: cell-based, chicken; conditions: A66 10 μM, PI3Kα Inhibitor 2 500 nM, Day 7, versus conditions without drug
Method: (§1) Frozen stocks of the hVEGF-A #33 cell line and the hVEGF-A #44 cell line (3.0×10^6 cells) were each awaken with a CS(−) medium, using a 25 cm^2 Flask (Corning, 430639), and were then cultured in a CO2 incubator (SANYO CO2 Incubator MCO-20AIC, 39.5° C., 5% CO2). On the following day, the cells were seeded on a 6-well dish (Nunc, 140675) to a cell density of 1.0×10^4 cells/mL (wherein the cell concentration and the survival rate were measured using CASY cell counter (Nepa Gene)). The cells were cultured in a CS(+) medium, in the presence or absence of a PI3Kα inhibitor (A66: 10 μM, PI3Kα Inhibitor 2: 500 nM). Moreover, after the cells had been cultured for 2 days, individual samples were subcultured under the same conditions to result in a cell density of 1.0×10^4 cells/mL. […] A plot, in which the vertical axis indicated AF647 (AF647-labeled hVEGF-A) and the longitudinal axis indicated PE (Goat Anti-Human IgG-PE), was developed, and the percentage of PE+(hIgG+)/[…] cells was then calculated. […] The percentage of clones with improved antigen-binding ability was calculated by counting the number of cells existing in this Affinity Maturation Gate and then dividing the obtained value by the total number of the analyzed cells. […]

[2] = test system: hVEGF-A-#44 cell line; assay: as above; format: cell-based, chicken; conditions: A66 10 μM, PI3Kα Inhibitor 2 500 nM, Day 7, versus conditions without drug
Method: as §1

## Cc1nc(NC(=O)N2CCC[C@H]2C(N)=O)sc1-c1csc(C(C)(C)C)n1 [A66]
[1]
  percentage of the cells with improved antigen-binding ability (Affinity Maturation Gate, 5 or more times increased in MFI): increased
[2]
  percentage of the cells with improved antigen-binding ability (Affinity Maturation Gate, 5 or more times increased in MFI): increased
